Measured values from patent US11510980B2, “Brartemicin analogues” (VICTORIA LINK LTD, priority 2017, dated 2022).
“Also recorded” adds a separate entry of the source.

Legend:
hMincle-Ig = biological target: T1, hMincle-Ig (Homo sapiens, UniProt Q9ULY5); test: In vitro Mincle binding assay (ELISA) with hMincle-Ig fusion protein; settings: plate-coated ligand 0.1 nmol/well
T1 construct: using soluble Mincle-Ig fusion-proteins; made in house
T1 sequence (Q9ULY5 41-219 limits assumed): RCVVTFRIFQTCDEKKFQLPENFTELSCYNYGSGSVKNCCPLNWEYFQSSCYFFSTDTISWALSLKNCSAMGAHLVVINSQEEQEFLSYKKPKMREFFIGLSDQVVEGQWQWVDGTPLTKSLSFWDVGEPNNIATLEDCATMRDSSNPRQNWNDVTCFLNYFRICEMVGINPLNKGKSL
Experimental: (§1) Preparation of ligand-coated plates: Brartemicin analogues 9a-9i, TDM (Carbosynth, Sigma Aldrich), and TDB^14 were dissolved in CHCl3:MeOH (2:1, 1 mM), diluted in isopropanol ([…]) and added to 96-well plates (20 μL/well). The solvents were evaporated and the coated plates were used immediately.
In vitro Mincle binding assay: The preparation of mMincle- and hMincle-Ig fusion proteins have been previously described. Plate-coated glycolipids 9a-i, TDB, and TDM were incubated with hMincle-Ig, mMincle-Ig, or hIgG1-Fc (Ig) [3 μg/mL in binding buffer (20 mM Tris-HCl, 150 mM NaCl, 1 mM CaCl2), 2 mM MgCl2, pH 7.0)]. Detection of bound protein was achieved via incubation with anti-hIgG-HRP followed by the addition of a colorimetric substrate and measurement of OD at 450 nm. Background was accounted for by subtracting the hIgG1-Fc OD450 values from fusion protein OD450 values
The synthesised brartemicin analogues prepared in Example 1 were first tested for their ability to bind to both human and murine Mincle in an enzyme-linked immunosorbent assay (ELISA) using soluble Mincle-Ig fusion-proteins (FIG. 1a).

hMincle+FcRγ = biological target: T2, hMincle+FcRγ (Homo sapiens, UniProt Q9ULY5); test: 2B4-NFAT-GFP reporter cells expressing hMincle+FcRγ; assay type: cell-based; settings: ligand-coated plates 0.01, 0.1 or 1 nmol/well, 18 hours
T2 construct: expressed in transfected cells; host or cells: 2B4-NFAT-GFP reporter cells
T2 sequence (Q9ULY5 1-219): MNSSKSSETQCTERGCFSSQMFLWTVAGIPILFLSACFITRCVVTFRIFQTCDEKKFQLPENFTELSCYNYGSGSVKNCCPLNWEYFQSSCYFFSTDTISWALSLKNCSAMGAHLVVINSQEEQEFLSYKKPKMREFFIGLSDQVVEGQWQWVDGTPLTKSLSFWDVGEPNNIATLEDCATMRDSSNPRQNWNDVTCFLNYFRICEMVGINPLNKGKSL
Experimental: as §1
2B4-NFAT-GFP reporter cells: 2B4-NFAT-GFP reporter cells expressing mMincle+FcRγ, hMincle+FcRγ, or FcRγ only have been previously described. […] The reporter cells were harvested, stained with propidium iodide, and analysed for NFAT-GFP expression using flow cytometry (FACS Calibur).
To determine whether the Mincle binding observed in Example 1 correlated with cellular activation, nuclear factor of activated T cells (NFAT)-green fluorescent protein (GFP) reporter cells expressing mMincle or hMincle coupled to FcRγ were stimulated using plates coated with TDM, TDB, brartemicin (9i), or analogues 9a-9h.
Activation of the reporter cells was measured through the production of GFP, which was monitored by flow cytometry (FIGS. 1b and 3c).
With the compounds 43a-h in hand, the ability of these analogues to bind and signal through Mincle was assessed (FIG. 5). Accordingly, NFAT-GFP reporter cells expressing mMincle+FcRγ, hMincle+FcRγ, or FcRγ-only were stimulated with the 2G-brartemicin analogues 43a-h, TDB, iPrOH, or the p-OC18H37 substituted analogue, 9f. Reporter cell activation was measured by the production of NFAT-GFP, which was analysed by flow cytometry.

wild-type GM-CSF BMDMs = test: Cytokine/chemokine production by wild-type GM-CSF BMDMs on ligand-coated plates; assay type: cell-based, C57BL/6 mice; settings: wild-type BMDMs, coated plates 0.1 or 1 nmol/well, 24 hours, ELISA
Experimental: as §1
Murine bone-marrow derived macrophages: For the preparation of murine bone-marrow derived macrophages, bone marrow cells were collected from the tibias and femurs of C57BL/6 mice and cultured (250,000 cells/mL) in complete RPMI media [RPMI-1640 (Gibco) with 10% heat inactivated fetal bovine serum (Gibco), 100 unit/mL penicillin-streptomycin (Gibco) and 2 mM Glutamax (Gibco)] supplemented with 50 ng/mL GM-CSF (clone X63/GM-CSF murine cells). Cells were incubated at 37° C. (5% CO2) for 8 days (cells fed by replacing half the media on days 3 and 6). On day 8, all media was removed and the cells were washed with Dulbecco's Phosphate-Buffered Saline (DPBS, Gibco) to remove any loosely-adherent cells. The BMDMs were harvested with StemPro Acutase (1 mL/well, 15 minutes at room temperature, Gibco) and seeded onto a pre-coated 96-well plate. The supernatant was collected and analysed for cytokine/chemokine production after 24 hours.
(§2) Cytokine analysis: IL-1β, IFN-γ, IL-6, TNF-α (BD Biosciences), IL-17, and MIP-2 (R&D) levels were determined via sandwich ELISA according to the manufacturer's instructions.
First, the ability of the compounds to activate GM-CSF BMDMs was determined by monitoring the secretion of the inflammatory cytokines TNF, IL-6, and IL-1β and the chemokine, MIP-2, in a ligand-coated plate assay (FIG. 2).
To gain insight into the capacity of the 2G-series of brartemicin analogues to induce an inflammatory immune response, the analogues were then screened for their ability to activate WT and Mincle^−/− BMDMs, with cellular activation being determined by the measurement of IL-1B using ELISA (FIG. 6).

[1] = test system: OT-II CD4+ T-cells co-cultured with GM-CSF BMDMs; test: BMDM / OT-II T-cell co-culture, OVA-specific IFN-γ and IL-17; assay type: cell-based, mice; settings: 48 hours
Experimental: as §2
BMDC-OT-II T-cell co-cuture: A mixture of OT-II cells (1×10^5 cells/100 μL) and BMDCs (1×10^4 cells/100 μL) were stimulated with plate coated glycolipd (0.1 nmol/well) or iPrOH only (20 μL/well) and increasing concentrations of OVA (0, 0.1, or 1 μM). After 48 or 72 hours, the supernatant was collected and ELISA was employed to determine the levels of IFN-γ and IL-17.
To evaluate the potential of C18dMeBrar (9a) as a Th1/Th17 adjuvant, GM-CSF BMDMs and T-cells from OVA-specific OT-II TCR Tg mice were co-cultured on plates coated with TDM (0.01 nmol/well), TDB (0.01 nmol/well), or C18dMeBrar (9a, 0.01 nmol/well). The cells were stimulated with OVA (0, 0.1, and 1 μM), and after 48 hours, the supernatant was collected. Levels of the key Th1 cytokine IFN-γ, which is indicative of an enhanced host defence response, and the Th17 cytokine IL-17 were measured via ELISA (FIG. 3). […] Antigen-specific secretion of IFN-γ however, was not enhanced by treatment with 9a.

[2] = 0.01 nmol/well, OVA 0, 0.1 and 1 μM, ELISA

Substance: 6,6′-Di-O-(2-hydroxy-4-octabenzyloxybenzoyl)-α,α′-D-trehalose [9a]
- binding to hMincle-Ig (ELISA, OD at 450 nm) (hMincle-Ig): good binding
- activation of hMincle NFAT-GFP reporter cells (GFP by flow cytometry) (hMincle+FcRγ): strongly activated; also recorded: best able to activate hMincle
- IL-1β production (wild-type GM-CSF BMDMs): significant production
- IL-6 production (wild-type GM-CSF BMDMs): significant production
- MIP-2 production (wild-type GM-CSF BMDMs): significant production
- TNF production (wild-type GM-CSF BMDMs): significant production
- OVA-specific production of IL-17 [1, 2]: significantly augmented
- antigen-specific secretion of IFN-γ [1, 2]: not enhanced
- adjuvant activity in vitro ([1]; 0.1 nmol/well, OVA323-339 peptide 0, 0.1 and 1 μM): displays adjuvant activity in vitro
